Measured values from ChEMBL document CHEMBL1126862, “Substituted 3-phenylpiperidines: new centrally acting dopamine autoreceptor antagonists” (J Med Chem, 1993).

Columns and labels:
Rattus norvegicus [1] = test: Evaluated for DOPA accumulation in striatum of nonpretreated rat at 100 umol / kg administered subcutaneously (p<0.05); assay type: functional
[2] = target: Sigma non-opioid intracellular receptor 1 (Rattus norvegicus, UniProt Q9R0C9); test: Binding effinity for sigma receptor using 2 nM of [3H]DTG as radioligand, in membranes from brain minus cerebellum; assay type: tissue-based
Rattus norvegicus [3] = test: Evaluated for DOPA accumulation in limbic region of reserpine pretreated rat at 100 umol / kg administered intraperitoneally (p<0.05); assay type: functional, Limbic system
Rattus norvegicus [4] = test: Evaluated for 5-HTP increase in hemisphere region of nonpretreated rat at 100 umol / kg administered subcutaneously (p<0.05); assay type: functional
Rattus norvegicus [5] = organism: Rattus norvegicus; test: Evaluated for rat locomotor activity in nonpretreated habituated rats at 100 umol / kg (p<0.05); assay type: functional
Rattus norvegicus [6] = organism: Rattus norvegicus; test: Rat locomotor activity in reserpine pretreated rats and accumulated counts / 30 min; assay type: functional
Rattus norvegicus [7] = test: Evaluated for DOPA accumulation in striatum of nonpretreated rat at 25 umol / kg administered subcutaneously; assay type: functional
Rattus norvegicus [8] = test: Evaluated for DOPA accumulation in limbic region of nonpretreated rat at 25 umol / kg administered subcutaneously; assay type: functional, Limbic system
Rattus norvegicus [9] = test: Evaluated for DOPA accumulation in striatum of reserpine pretreated rat at 100 umol / kg administered intraperitoneally; assay type: functional
Rattus norvegicus [10] = test: Evaluated for DOPA accumulation in limbic region of nonpretreated rat at 100 umol / kg administered subcutaneously (p<0.05); assay type: functional, Limbic system
Rattus norvegicus [11] = organism: Rattus norvegicus; test: Evaluated for rat locomotor activity in nonhabituated rats at 100 umol / kg; assay type: functional
Rattus norvegicus [12] = test: Evaluated for 5-HTP increase in limbic region of nonpretreated rat at 100 umol / kg administered subcutaneously; assay type: functional, Limbic system
Rattus norvegicus [13] = organism: Rattus norvegicus; test: Evaluated for rat locomotor activity in nonhabituated rats at 25 umol / kg; assay type: functional
Rattus norvegicus [14] = organism: Rattus norvegicus; test: Evaluated for rat locomotor activity in nonpretreated habituated rats at 25 umol / kg (p<0.05); assay type: functional
Rattus norvegicus [15] = organism: Rattus norvegicus; test: Evaluated for rat locomotor activity in nonpretreated habituated rats at 25 umol / kg; assay type: functional
D(2) dopamine receptor [16] = target: T1, D(2) dopamine receptor (Rattus norvegicus, UniProt P61169); test: Evaluated for binding towards Dopamine receptor D2 using [3H]N-0437 as radioligand from rat striatal membrane
Rattus norvegicus [17] = test: Evaluated in rat accumbens for the effect on dopamine release and metabolism in brain dialysis model after administration of 50 umol / kg subcutaneously; assay type: functional
D(2) dopamine receptor [18] = target: T1, D(2) dopamine receptor; test: Binding towards Dopamine receptor D2 using [3H]spiperone from rat striatal membrane
Rattus norvegicus [19] = test: Evaluated for rat locomotor activity in nonhabituated rats at 52 umol / kg administered subcutaneously; assay type: functional
Rattus norvegicus [20] = test: Evaluated in rat striatum for the effect on dopamine release and metabolism in brain dialysis model after administration of 50 umol / kg subcutaneously; assay type: functional; design: unit not given beside the values
Rattus norvegicus [21] = test: Evaluated for DOPA accumulation in striatum of reserpine pretreated rat at 52 umol / kg administered subcutaneously; assay type: functional
Rattus norvegicus [22] = test: Evaluated for DOPA accumulation in limbic region of nonpretreated rat at 13 umol / kg administered subcutaneously; assay type: functional, Limbic system
Rattus norvegicus [23] = test: Evaluated in rat accumbens for the effect onDOPAC release and metabolism in brain dialysis model after administration of 50 umol / kg subcutaneously; assay type: functional
D(3) dopamine receptor = D(3) dopamine receptor (Homo sapiens, UniProt P35462)
Description: Binding towards Dopamine receptor D3 expressed in CHO-K1 cells using [3H]spiperone

Rattus norvegicus [24] = test: Evaluated for DOPA accumulation in striatum of nonpretreated rat at 52 umol / kg administered subcutaneously; assay type: functional
D(2) dopamine receptor [25] = target: T2, D(2) dopamine receptor (Bos taurus, UniProt P20288); test: Evaluated for binding towards Dopamine receptor D2 using [3H]-spiperone as radioligand, in cloned mammalian receptors expressed in CHO-K1 cells; assay type: cell-based
D(2) dopamine receptor [26] = target: T2, D(2) dopamine receptor; test: Binding towards Dopamine receptor D2 expressed in CHO-K1 cells using [3H]U-86170; assay type: cell-based
Rattus norvegicus [27] = test: Evaluated for rat locomotor activity in nonhabituated rats at 13 umol / kg administered subcutaneously; assay type: functional
Rattus norvegicus [28] = test: Evaluated for DOPA accumulation in limbic region of nonpretreated rat at 52 umol / kg administered subcutaneously; assay type: functional, Limbic system
Rattus norvegicus [29] = test: Evaluated in rat striatum for the effect on DOPAC release and metabolism in brain dialysis model after administration of 50 umol / kg subcutaneously; assay type: functional; design: unit not given beside the values
Rattus norvegicus [30] = test: Evaluated for DOPA accumulation in striatum of nonpretreated rat at 13 umol / kg administered subcutaneously; assay type: functional
Rattus norvegicus [31] = organism: Rattus norvegicus; test: Rat locomotor activity in reserpine pretreated rats and accumulated counts / 30 min is calculated; assay type: functional
Rattus norvegicus [32] = test: Evaluated for DOPA accumulation in limbic region of reserpine pretreated rat at 52 umol / kg administered subcutaneously; assay type: functional, Limbic system
D(4) dopamine receptor = target: T3, D(4) dopamine receptor (Homo sapiens, UniProt P21917)
T3 sequence (P21917 whole entry): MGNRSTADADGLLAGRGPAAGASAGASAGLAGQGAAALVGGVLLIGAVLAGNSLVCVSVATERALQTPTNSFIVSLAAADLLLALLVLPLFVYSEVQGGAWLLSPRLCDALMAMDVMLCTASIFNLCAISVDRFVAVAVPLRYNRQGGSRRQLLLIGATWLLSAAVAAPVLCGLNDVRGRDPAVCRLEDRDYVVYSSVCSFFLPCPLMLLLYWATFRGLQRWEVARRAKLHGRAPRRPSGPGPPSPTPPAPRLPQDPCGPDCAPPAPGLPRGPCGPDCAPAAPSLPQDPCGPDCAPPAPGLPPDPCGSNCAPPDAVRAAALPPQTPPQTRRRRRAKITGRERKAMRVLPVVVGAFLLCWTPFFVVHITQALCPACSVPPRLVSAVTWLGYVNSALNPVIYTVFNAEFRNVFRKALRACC
Description: Binding towards dopamine receptor D4 expressed in CHO-K1 cells using [3H]spiperone

Rattus norvegicus [33] = organism: Rattus norvegicus; test: Evaluated for rat locomotor activity in nonpretreated habituated rats at 100 umol / kg; assay type: functional; design: unit not given beside the values
Rattus norvegicus [34] = test: Evaluated for DOPA accumulation in limbic region of reserpine pretreated rat at 100 umol / kg administered intraperitoneally; assay type: functional, Limbic system
Rattus norvegicus [35] = test: Evaluated for rat locomotor activity in nonhabituated rats at 13 umol / kg administered intraperitoneally; assay type: functional
Rattus norvegicus [36] = test: Evaluated in rat accumbens for the effect on DOPAC release and metabolism in brain dialysis model after administration of 50 umol / kg subcutaneously; assay type: functional
Rattus norvegicus [37] = test: Evaluated for 5-HTP increase in hemisphere region of nonpretreated rat at 100 umol / kg administered subcutaneously; assay type: functional
[38] = Half life was estimated from the elimination phase of the blood concentration curves after peroral administration; assay type: ADME, organism-based; settings: po
Rattus norvegicus [39] = test: Evaluated for DOPA accumulation in striatum of nonpretreated rat at 100 umol / kg administered subcutaneously; assay type: functional

T2 sequence (P20288 whole entry): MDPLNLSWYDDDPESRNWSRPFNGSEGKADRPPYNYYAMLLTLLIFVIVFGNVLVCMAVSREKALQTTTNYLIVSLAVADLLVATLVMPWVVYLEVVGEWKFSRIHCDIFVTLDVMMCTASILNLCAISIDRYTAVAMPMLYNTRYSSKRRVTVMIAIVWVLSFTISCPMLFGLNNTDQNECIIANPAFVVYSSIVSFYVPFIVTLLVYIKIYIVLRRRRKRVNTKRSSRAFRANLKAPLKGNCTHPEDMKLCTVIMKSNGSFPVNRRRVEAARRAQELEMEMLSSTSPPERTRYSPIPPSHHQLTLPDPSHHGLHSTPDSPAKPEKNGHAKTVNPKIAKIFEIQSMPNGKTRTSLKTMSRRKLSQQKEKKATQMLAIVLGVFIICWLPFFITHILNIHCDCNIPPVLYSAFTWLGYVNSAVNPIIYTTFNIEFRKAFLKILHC
T1 sequence (P61169 whole entry): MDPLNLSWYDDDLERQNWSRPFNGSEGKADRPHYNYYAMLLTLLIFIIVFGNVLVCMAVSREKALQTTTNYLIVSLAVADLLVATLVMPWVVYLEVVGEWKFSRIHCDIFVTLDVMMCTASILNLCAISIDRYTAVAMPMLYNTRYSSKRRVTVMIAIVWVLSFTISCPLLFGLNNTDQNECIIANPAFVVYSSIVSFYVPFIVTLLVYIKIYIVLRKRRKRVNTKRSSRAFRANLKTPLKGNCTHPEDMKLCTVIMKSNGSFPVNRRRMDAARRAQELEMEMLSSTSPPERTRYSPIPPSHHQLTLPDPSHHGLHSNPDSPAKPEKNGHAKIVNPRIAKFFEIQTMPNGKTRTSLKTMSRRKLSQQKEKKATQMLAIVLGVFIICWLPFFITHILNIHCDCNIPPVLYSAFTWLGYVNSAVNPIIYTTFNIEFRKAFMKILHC
Sigma non-opioid intracellular receptor 1, sequence (Q9R0C9 whole entry): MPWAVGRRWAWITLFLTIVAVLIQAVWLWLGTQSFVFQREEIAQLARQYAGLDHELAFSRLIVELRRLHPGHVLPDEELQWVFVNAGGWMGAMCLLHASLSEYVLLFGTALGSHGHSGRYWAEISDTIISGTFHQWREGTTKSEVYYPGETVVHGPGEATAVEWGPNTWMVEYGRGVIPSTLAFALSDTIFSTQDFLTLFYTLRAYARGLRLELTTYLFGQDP
D(3) dopamine receptor, sequence (P35462 whole entry): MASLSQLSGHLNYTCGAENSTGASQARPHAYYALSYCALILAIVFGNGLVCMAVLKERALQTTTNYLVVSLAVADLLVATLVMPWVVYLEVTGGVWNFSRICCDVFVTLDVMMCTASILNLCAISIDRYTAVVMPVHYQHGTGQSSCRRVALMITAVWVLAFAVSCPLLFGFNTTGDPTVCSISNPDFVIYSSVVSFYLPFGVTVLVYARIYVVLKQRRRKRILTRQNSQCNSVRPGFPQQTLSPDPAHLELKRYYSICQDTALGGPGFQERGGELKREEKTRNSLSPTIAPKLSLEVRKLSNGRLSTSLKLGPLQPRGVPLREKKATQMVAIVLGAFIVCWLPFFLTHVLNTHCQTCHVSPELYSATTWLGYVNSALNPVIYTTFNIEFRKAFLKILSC

Row | IC50 [2] [nM] | SMILES | Activity (Rattus norvegicus [7]) | Activity (Rattus norvegicus [8]) | Activity (Rattus norvegicus [9]) | Activity (Rattus norvegicus [11]) | Activity (Rattus norvegicus [12]) | Activity (Rattus norvegicus [13]) | Activity (Rattus norvegicus [15]) | Ki (D(2) dopamine receptor [16]) [nM] | Activity (Rattus norvegicus [17]) | Ki (D(2) dopamine receptor [18]) [nM] | Activity (Rattus norvegicus [20]) | Activity (Rattus norvegicus [22]) | Ki (D(3) dopamine receptor) [nM] | Activity (Rattus norvegicus [24]) | Ki (D(2) dopamine receptor [25]) [nM] | Ki (D(2) dopamine receptor [26]) [nM] | Activity (Rattus norvegicus [28]) | Activity (Rattus norvegicus [29]) | Activity (Rattus norvegicus [31]) | other results
1 | 6 | CCCN1CCC[C@H](c2cccc(OS(=O)(=O)C(F)(F)F)c2)C1 | 92 | 93 | 80 | 95 | 86 | 115 | – | – | – | – | – | – | – | – | – | – | – | – | – | Activity (Rattus norvegicus [1]): 80; Activity (Rattus norvegicus [3]): 75; Activity (Rattus norvegicus [4]): 86; Activity (Rattus norvegicus [5]): 34; Activity (Rattus norvegicus [6]): 2; Activity (Rattus norvegicus [10]): 82; Activity (Rattus norvegicus [14]): 30
2 | – | CCCN[C@@H]1CCc2c(OC)cccc2[C@@H]1C | – | – | – | – | – | – | 300 | 300 | 313 | 530 | 285 | 223 | 26 | 400 | 158 | 145 | 253 | 315 | 11 | Activity (Rattus norvegicus [19]): 159; Activity (Rattus norvegicus [21]): 102; Activity (Rattus norvegicus [23]): 235; Activity (Rattus norvegicus [27]): 155; Activity (Rattus norvegicus [30]): 330; Activity (Rattus norvegicus [32]): 108; Ki (D(4) dopamine receptor): 117 nM; Activity (Rattus norvegicus [33]): 350
3 | – | CCCN(CCC)[C@@H]1CCc2c(OC)cccc2[C@@H]1C | – | – | 109 | 70 | – | – | 220 | 100 | 231 | 70 | 209 | 180 | 4 | 370 | 18 | 13 | 245 | 307 | 29 | Activity (Rattus norvegicus [34]): 116; Activity (Rattus norvegicus [35]): 140; Activity (Rattus norvegicus [36]): 207; Activity (Rattus norvegicus [30]): 270; Ki (D(4) dopamine receptor): 48 nM; Activity (Rattus norvegicus [33]): 220
4 | 32 | CCCN1CCC[C@@H](c2cccc(OS(=O)(=O)C(F)(F)F)c2)C1 | 221 | 139 | 89 | 129 | 102 | 128 | – | – | 153 | – | 208 | – | – | – | – | – | – | 162 | 25 | Activity (Rattus norvegicus [34]): 94; Activity (Rattus norvegicus [37]): 108; half-life [38]: 210 min; Activity (Rattus norvegicus [36]): 152; Activity (Rattus norvegicus [39]): 264
